Patent US20080070860A1, “Adenosine Analogs Useful as Anti-Bacterial and Anti Protozoan Agents” (UTI LIMITED PARTNERSHIP, priority 2005, published 2008)

System: not given
Test: not given
Settings: not given
`COC[C@H]1O[C@@H](n2cnc3c(N)nc(Cl)nc32)[C@H](O)[C@@H]1O` gave a melting point of 92 to 94 °C. With `COC[C@H]1O[C@@H](n2cnc3c(N)nc(F)nc32)[C@H](O)[C@@H]1O` the melting point was 231 to 233 °C. With `C[C@H]1O[C@@H](n2cnc3c(N)nc(N)nc32)[C@H](O)[C@@H]1O` [2-amino-5′-deoxyadenosine] the melting point was 135 to 138 °C. Compound `C[C@H]1O[C@@H](n2cnc3c(N)nc(F)nc32)[C@H](O)[C@@H]1O` [2-fluoro-5′-deoxyadenosine] has a melting point of 244 to 245 °C.

Molecular target: T1, adenosine phosphorylase (Escherichia coli, UniProt P0ABP8)
T1 construct: assayed using the cell free lysate of E. coli as enzyme source; endogenous in cells; host or cells: Escherichia coli DH5alpha (cell-free lysate, 10,000 x g supernatant)
T1 sequence (P0ABP8 2-239): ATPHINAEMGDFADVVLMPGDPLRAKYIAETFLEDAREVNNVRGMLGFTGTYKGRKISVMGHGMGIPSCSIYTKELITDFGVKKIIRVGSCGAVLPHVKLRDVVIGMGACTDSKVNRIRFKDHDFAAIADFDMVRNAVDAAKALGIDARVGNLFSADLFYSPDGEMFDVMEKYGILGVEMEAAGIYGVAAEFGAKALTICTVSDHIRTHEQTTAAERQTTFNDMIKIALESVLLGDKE
Test: Adenosine phosphorylase assay (cleavage of nucleoside analog to base, E. coli cell free lysate, HPLC)
Format: biochemical, Escherichia coli DH5alpha
Settings: 100 μM nucleoside analog, 20 min, 50 mM phosphate pH 7.4
Method: Escherichia coli DH5alpha cells were used as the source of adenosine phosphorylase to test the compounds of the present invention. E. coli DH5 alpha cells were harvested in log phase and collected by centrifugation. Cells were lysed by sonication, centrifuged at 10,000×g for 30 min and the supernatant was recovered for assay or storage at −60° C.
Adenosine phosphorylase activity was assayed using the cell free lysate of E. coli as enzyme source for catalysis of the cleavage of nucleoside analogs to their corresponding base analogs in the presence of 50 mM phosphate at pH 7.4. Reaction products were subjected to separation by reverse phase high performance liquid chromatography (HPLC) equipped with continuous scanning diode array detector as described below. Substrates and products were identified by retention time and UV spectra of their peaks.
Samples for HPLC were prepared post reaction by deproteination with 10% v/v of 50% TCA. Following centrifugation at 10,000 g for 5 min the supernatant was recovered for neutralization. A minimal amount of bromophenol blue was added and the sample was titrated with alamine-freon. Following a further centrifugation at 10,000 g for 5 min, the neutralized sample may be stored at −60° C.
Nucleosides and bases in a 10 μl sample were separated on an HPLC equipped with a scanning UV detector from 220 to 320 nm at 5 nm intervals, utilizing a reverse phase Waters Symmetry C18, 4.6×150 mm, 5 um column in tandem with a Waters guard column.
Compounds were identified by retention time and UV spectra at peak height as collected during separation.
The relative rate of conversion of 100 μM nucleoside analog to the corresponding base in 20 min (measured as the % of analog converted) was determined for the following compounds: 5′-deoxyadenosine, 41%; 2-chloroadenosine, 31%; 2-chloro-5′-deoxyadenosine, 8%; 2-fluoro-5′-deoxyadenosine, >80%; 6-thiopurine-5′-deoxyriboside, 61%; 2-amino-5′-deoxyadenosine, 7%.
In the case of `C[C@H]1O[C@@H](n2cnc3c(N)nc(N)nc32)[C@H](O)[C@@H]1O` [2-amino-5′-deoxyadenosine], the “relative rate of conversion of nucleoside analog to the corresponding base (% of analog converted)” value (shortened to “relative rate … (% of analog converted)”) is reported as 7%. In the case of `C[C@H]1O[C@@H](n2cnc3c(N)nc(Cl)nc32)[C@H](O)[C@@H]1O` [2-chloro-5′-deoxyadenosine], the “relative rate … (% of analog converted)” value is reported as 8%. For `Nc1nc(Cl)nc2c1ncn2[C@@H]1O[C@H](CO)[C@@H](O)[C@H]1O` [2-chloroadenosine, reference compound], the “relative rate … (% of analog converted)” value was 31%. With `C[C@H]1O[C@@H](n2cnc3c(N)nc(F)nc32)[C@H](O)[C@@H]1O` [2-fluoro-5′-deoxyadenosine] the “relative rate … (% of analog converted)” value was greater than 80%. For `C[C@H]1O[C@@H](n2cnc3c(N)ncnc32)[C@H](O)[C@@H]1O` [5′-deoxyadenosine], the “relative rate … (% of analog converted)” value was 41%. For `C[C@H]1O[C@@H](n2cnc3c(S)ncnc32)[C@H](O)[C@@H]1O` [6-thiopurine-5′-deoxyriboside, 6-mercaptopurine-5′-deoxy-β-D-riboside], the “relative rate … (% of analog converted)” value was 61%.

Molecular target: T2, adenosine deaminase (Homo sapiens, UniProt P00813)
T2 sequence (P00813 1-363): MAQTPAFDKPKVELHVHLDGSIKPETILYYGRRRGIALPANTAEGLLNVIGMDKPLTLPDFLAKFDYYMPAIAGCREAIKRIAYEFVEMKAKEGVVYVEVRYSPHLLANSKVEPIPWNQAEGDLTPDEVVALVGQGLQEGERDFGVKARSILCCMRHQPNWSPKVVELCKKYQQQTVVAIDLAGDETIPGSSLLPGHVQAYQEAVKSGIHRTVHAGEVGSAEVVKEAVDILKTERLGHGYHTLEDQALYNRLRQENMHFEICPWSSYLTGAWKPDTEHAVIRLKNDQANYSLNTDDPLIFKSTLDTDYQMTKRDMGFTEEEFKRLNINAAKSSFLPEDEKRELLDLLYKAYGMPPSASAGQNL
Test: not given
Settings: cited from earlier work
In the case of `Cc1ncnc2nc[nH]c12` [6-methylpurine], the “susceptibility to adenosine deaminase” value is listed as “quite refractory”.

Molecular target: adenosine kinase (Homo sapiens, UniProt P55263)
Sequence (P55263 whole entry, species assumed): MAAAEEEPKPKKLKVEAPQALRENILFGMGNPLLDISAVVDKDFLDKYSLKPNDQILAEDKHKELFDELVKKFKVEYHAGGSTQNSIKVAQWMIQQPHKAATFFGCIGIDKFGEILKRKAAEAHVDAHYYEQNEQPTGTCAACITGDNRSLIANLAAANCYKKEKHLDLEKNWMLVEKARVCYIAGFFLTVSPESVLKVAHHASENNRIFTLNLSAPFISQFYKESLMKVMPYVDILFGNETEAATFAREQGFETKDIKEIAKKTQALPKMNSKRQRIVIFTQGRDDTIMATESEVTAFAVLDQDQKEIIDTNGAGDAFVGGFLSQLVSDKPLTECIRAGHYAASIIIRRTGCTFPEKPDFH
Test: not given
Settings: Kowaluk et al. 1998; cited from earlier work
In the case of `NC[C@H]1O[C@@H](n2cnc3c(N)ncnc32)[C@H](O)[C@@H]1O` [5′-deoxy-5′-amino-adenosine], the “inhibition of adenosine kinase” value is given as “potent inhibitor”.
